# Test results from US9592223B2, “Small molecule inhibitors of MALT1” (Cornell University, priority 2012, dated 2017).
# What was measured:
# [1] = test system: ABC-DLBCL MALT1 independent cell lines U2932 and HLY-1; experiment: Growth inhibition, MALT1 independent ABC-DLBCL cell lines; format: cell-based, human; details: increasing concentrations, single dose, 48 hr
# Method: Endogenous MALT1 activity was evaluated by Western blotting for A20, BCL10 and CYLD; and NF-κB activation, by phospho-IκB-α and total IκB-α. Dependence on MALT1 proteolytic activity for proliferation was tested by 50[…]μM Z-VRPR-FMK treatment for 48 hr. […] The U2932 and HLY1 ABC-DLBCL cell lines harbor mutations in TAK1 and A20, which activate NF-κB signaling downstream of MALT1.
# Cell proliferation was determined by ATP quantification using a luminescent method (CellTiter-Glo, Promega, Madison, Wis.) and Trypan blue dye-exclusion (Sigma, St. Louis, Mo.). Cell viability in drug-treated cells was normalized to their respective controls (fractional viability) and results are given as 1-fractional viability. […]
# DLBCL cell lines were grown in exponential growth conditions during the 48 hr of treatment. Cell proliferation was determined by ATP quantification using a luminescent method (CellTiter-Glo, Promega, Madison, Wis.) and Trypan blue dye-exclusion (Sigma, St. Louis, Mo.). Luminescence was measured using the Synergy4 microplate reader (BioTek Instruments, Winooski, Vt.). Standard curves for each cell line were calculated by plotting the cell number (determined by the Trypan blue method) against their luminescence values and number of cells was calculated accordingly. […]
# [2] = test system: MALT1-mediated cleavage of CYLD; experiment: MALT1-mediated cleavage of CYLD in HBL-1 cells, Western blotting and densitometry; format: cell-based, human
# Method: A total of 704 analog compounds from available libraries with similarity score ≧70% (Tanimoto similarity functions) were screened by LZ-MALT1 fluorescence assay.
# (§1) Equal amounts of total protein (20-75 μg) were separated on sodium dodecyl sulfate-polyacrylamide gel electrophoresis (SDS-PAGE), and electrotransferred onto nitrocellulose membranes. Membranes were incubated with primary antibodies (MALT1, BCL-10, CYLD from Santa Cruz Biotechnologies, Santa Cruz, Calif.; A20 from eBioscience, San Diego, Calif.; phospho-IκB-α, IκB-α, c-REL, RELB from Cell Signaling, Danvers, Mass. and α-Tubulin from Sigma), followed by secondary antibodies conjugated to horseradish peroxidase, which were detected by chemiluminescence (Pierce, Thermo Scientific, Rockford, Ill.).
# [3] = test system: Caspase-3/7 activity; experiment: Caspase-3/7 activity or apoptosis in cell-based assays; details: concentrations which suppress MALT1
# [4] = test system: nuclear c-REL and p65; experiment: Western blots for c-REL and p65 in nuclear extracts of HBL-1 and TMD8 cells; format: cell-based, human; details: 24 hr, 200 nM for HBL-1 and 500 nM for TMD8
# Method: MALT1 mediates c-REL translocation to the nucleus following BCR stimulation (Ferch et al., 2007). […] This selectivity towards c-REL had also been previously shown in MALT1 knockout mice and after MALT1 cleavage inhibition by the MALT1 blocking peptide Z-VRPR-FMK (Ferch et al., 2009; Ferch et al., 2007; Hailfinger et al., 2011).
# as §1
# [5] = test system: HBL-1 cells; experiment: MI-2 intracellular concentration in HBL-1 cells by LC-MS; format: in vitro ADME, human
# [6] = test system: HBL-1, TMD8 and OCI-Ly10; experiment: CFSE dilution assay by flow cytometry, ABC-DLBCL lines; format: cell-based, human; details: viable cells at 48, 72 and 96 h
# Method: (§2) Cell proliferation was examined using the CFSE dilution assay by flow cytometry on viable cells at 48, 72 and 96 h. […] Trypan blue exclusion and apoptosis assessed by Annexin V^+ DAPI^− flow cytometry was measured every 48 hr for a period of 14 days.
# (§3) CFSE covalently labels long-lived intracellular molecules with carboxyfluorescein. Following each cell division, fluorescent molecules dilute in daughter cells, allowing comparative study of the kinetics of cell division. Cells were stained with DAPI (Sigma), followed by flow cytometry. DAPI^neg cells were gated for analysis.
# [7] = test system: OCI-Ly1; experiment: CFSE dilution assay by flow cytometry, GCB-DLBCL line; format: cell-based, human; details: viable cells at 48, 72 and 96 h
# Method: as §2, §3
# [8] = Toxicity 2: 25 mg/kg daily IP for 14 days, blood count, serum chemistry, histology; format: in vivo, mice; details: for ALBUMIN / ALP / ALT / AST / BASOPHILS / BUN / CALCIUM / CHLORIDE / CHOLESTEROL / CK / CREATININE / DIRECT BILIRUBIN / EOSINOPHILS / GGT / GLOBULIN / GLUCOSE / HEMATOCRIT / HEMOGLOBIN / INDIRECT BILIRUBIN / LYMPHOCYTES / MONOCYTES / NEUTROPHILS / PHOSPHORUS / PLATELETS / RBC / SODIUM / TOTAL BILIRUBIN / TOTAL PROTEIN / WBC: 25 mg/kg IP daily 14 days
# Text: Brain, heart, lung, liver, kidney, bowel, spleen, thymus and bone marrow tissues were examined.
smiles,measurement,setting,value
COCCOc1nc(-c2ccc(Cl)c(Cl)c2)n(-c2ccc(NC(=O)CCl)cc2)n1 [MI-2],growth inhibition,[1],resistant
same,MALT1-mediated cleavage of CYLD,"[2]; HBL-1, increasing concentrations, 24 hr",dose-dependent decrease in MALT1-mediated cleavage
same,inhibition of MALT1 cleavage of CYLD,"[2]; analogs 5 μM for 8 hr, Z-VRPR-FMK 50 μM as positive control",most potent compound
same,inhibition of Caspase-3/7 activity or apoptosis,[3],did not inhibit
same,nuclear c-REL (Western blot),[4],clear reduction of nuclear c-REL
same,nuclear p65 (Western blot),[4],did not affect p65 levels
same,intracellular concentration,"[5]; 0.2 μM treated HBL-1 cells, 2 hr",5 µM
same,free drug within the cells,"[5]; 0.2 μM, by 12 hr",virtually no detectable free MI-2
same,cell proliferation (CFSE dilution),[6],substantially inhibited proliferation
same,cell proliferation (CFSE dilution),[7],did not affect
same,ALBUMIN,[8]; d14,3.12 g/dL
same,ALP,[8]; d14,83 U/L
same,ALT,[8]; d14,25 U/L
same,AST,[8]; d14,70 U/L
same,BASOPHILS,[8]; d14,0.01 K/μL
same,BUN,[8]; d14,23.4 mg/dL
same,CALCIUM,[8]; d14,10.88 mg/dL
same,CHLORIDE,[8]; d14,108.4 mEq/L
same,CHOLESTEROL,[8]; d14,85.4 mg/dL
same,CK,[8]; d14,202.8 U/L
same,CREATININE,[8]; d14,0.22 mg/dL
same,DIRECT BILIRUBIN,[8]; d14,0.10 mg/dL
same,EOSINOPHILS,[8]; d14,0.03 K/μL
same,GGT,[8]; d14,0 U/L
same,GLOBULIN,[8]; d14,2.20 g/dL
same,GLUCOSE,[8]; d14,313.8 mg/dL
same,HEMATOCRIT,[8]; d14,40.86%
same,HEMOGLOBIN,[8]; d14,12.94 g/dL
same,INDIRECT BILIRUBIN,[8]; d14,0.08 mg/dL
same,LYMPHOCYTES,[8]; d14,6.29 K/μL
same,MONOCYTES,[8]; d14,0.32 K/μL
same,NEUTROPHILS,[8]; d14,1.18 K/μL
same,PHOSPHORUS,[8]; d14,9.46 mg/dL
same,PLATELETS,[8]; d14,981 K/μL
same,RBC,[8]; d14,8.60 M/μL
same,SODIUM,[8]; d14,152.8 mEq/L
same,TOTAL BILIRUBIN,[8]; d14,0.180 mg/dL
same,TOTAL PROTEIN,[8]; d14,5.32 g/dL
same,WBC,[8]; d14,7.83 K/μL
same,ALBUMIN,[8]; d24 (10-day washout),3.15 g/dL
same,ALP,[8]; d24 (10-day washout),100 U/L
same,ALT,[8]; d24 (10-day washout),23 U/L
same,AST,[8]; d24 (10-day washout),49.5 U/L
same,BASOPHILS,[8]; d24 (10-day washout),0.04 K/μL
same,BUN,[8]; d24 (10-day washout),27.0 mg/dL
same,CALCIUM,[8]; d24 (10-day washout),10.80 mg/dL
same,CHLORIDE,[8]; d24 (10-day washout),106.7 mEq/L
same,CHOLESTEROL,[8]; d24 (10-day washout),91.75 mg/dL
same,CK,[8]; d24 (10-day washout),119.5 U/L
same,CREATININE,[8]; d24 (10-day washout),0.20 mg/dL
same,DIRECT BILIRUBIN,[8]; d24 (10-day washout),0.10 mg/dL
same,EOSINOPHILS,[8]; d24 (10-day washout),0.11 K/μL
same,GGT,[8]; d24 (10-day washout),0 U/L
same,GLOBULIN,[8]; d24 (10-day washout),2.15 g/dL
same,GLUCOSE,[8]; d24 (10-day washout),288.5 mg/dL
same,HEMATOCRIT,[8]; d24 (10-day washout),45.02%
same,HEMOGLOBIN,[8]; d24 (10-day washout),13.55 g/dL
same,INDIRECT BILIRUBIN,[8]; d24 (10-day washout),0.07 mg/dL
same,LYMPHOCYTES,[8]; d24 (10-day washout),6.76 K/μL
same,MONOCYTES,[8]; d24 (10-day washout),0.27 K/μL
same,NEUTROPHILS,[8]; d24 (10-day washout),1.85 K/μL
same,PHOSPHORUS,[8]; d24 (10-day washout),9.65 mg/dL
same,PLATELETS,[8]; d24 (10-day washout),1275 K/μL
same,RBC,[8]; d24 (10-day washout),9.38 M/μL
same,SODIUM,[8]; d24 (10-day washout),153 mEq/L
same,TOTAL BILIRUBIN,[8]; d24 (10-day washout),0.175 mg/dL
same,TOTAL PROTEIN,[8]; d24 (10-day washout),5.30 g/dL
same,WBC,[8]; d24 (10-day washout),9.03 K/μL
same,bone marrow histology,[8]; daily IP 25 mg/kg over 14 days,normocellular with trilineage maturing hematopoiesis
same,"complete peripheral blood counts, biochemistry and liver function tests",[8]; daily IP 25 mg/kg over 14 days,normal
same,"toxic effects, weight loss, tissue damage","[8]; daily IP 25 mg/kg over 14 days, cumulative 350 mg/kg",No toxic effects or other indicators of sickness
